Results as given in patent US20230285402A1, “Compositions and Methods of Modulating Short-Chain Dehydrogenase Activity” (BOARD OF REGENTS OF THE UNIVERSITY OF TEXAS SYSTEM, priority 2013, published 2023).
Where two headings read alike, the source gives them in different places.

Legend:
[1] = biological target: T1, recombinant 15-PGDH (Homo sapiens (Human), UniProt P15428); assay: Inhibition of enzymatic activity of recombinant 15-PGDH in vitro (NADH generation); assay type: biochemical
[2] = system: bone marrow; assay: Hematopoietic colonies from wild-type mouse bone marrow treated ex vivo; assay type: cell-based; conditions: 1 uM, ex vivo on ice 2 hours
Source text: Treated marrow is again then plated into methylcellulose for counting of hematopoietic colonies.

[3] = biological target: T1, recombinant 15-PGDH; assay: Melting temperature shift of recombinant 15-PGDH (SYPRO Orange); assay type: binding; conditions: for melting temperature: 20 uM compound
[4] = system: A549 cells; assay: PGE2 in medium of IL1-beta stimulated A549 cells; assay type: cell-based; conditions: for rank of PGE2 level in medium: 100 nM drug; for induction of PGE2 compared with SW033291: 4 nM to 2500 nM
[5] = system: 15-PGDH mRNA; assay: 15-PGDH mRNA by real-time PCR in colon cancer cell lines; assay type: cell-based; conditions: treated colon cancer cell lines
Source text: In these studies parental cell lines (not containing the 15-PGDH-luciferase reporter) are employed.

[6] = system: 15-PGDH-luciferase fusion reporter in V9m, LS174T and V503 cells; assay: 15-PGDH-luciferase fusion reporter induction in colon cancer cell lines; assay type: cell-based; conditions: for luciferase activity, in words: V9m, LS174T, V503; for Concentration for Full Cell Line Reporter Induction: maximal induction of reporter
[7] = system: A549 cells; assay: Cellular toxicity by CellTiter-Glo; assay type: cell-based; conditions: concentrations of up to 10 μM; 24 hours
Protocol: FIGS. 38(A-C) show assays of cellular toxicity on A549 cells at 24 hours of 15-PGDH inhibitors as assayed by CellTiter-Glo measurement.

[8] = system: cell numbers in a cell culture assay; assay: Toxicity in cell culture assay (decrease of cell numbers); assay type: cell-based; conditions: concentration needed to decrease cell numbers
Protocol: Time to inhibition refers to the time needed to inhibit the generation of NADH by 15-PGDH from the moment with drug is added into the reaction mix. Delta Tm refers to the shift in melting temperature of recombinant 15-PGDH in the presence of drug (with cofactor NADH also present). Concentration of Full Cell Line Reporter Induction refers to the concentration of drug that needs to be added to reporter cell line to achieve maximal induction of the 15-PGDH-luciferase gene fusion reporter cassette, as measured by luciferase assays. Hepatocyte stability refers to the half-life of compound in the presence of hepatocytes in culture. Toxicity refers to the concentration of compound needed to decrease cell numbers in a cell culture assay.

[9] = system: mice; assay: Homing of CFSE labeled donor bone marrow cells in lethally irradiated mice; assay type: in vivo, mouse
Protocol: Drugs are administered following radiation, following the transplant, and again at 8 hours after the transplant.

[10] = read-out: Enzyme Inhibitor IC50 (nM) at 5 nM 15-PGDH, 5 nM recombinant human 15-PGDH

T1 sequence (P15428 whole entry): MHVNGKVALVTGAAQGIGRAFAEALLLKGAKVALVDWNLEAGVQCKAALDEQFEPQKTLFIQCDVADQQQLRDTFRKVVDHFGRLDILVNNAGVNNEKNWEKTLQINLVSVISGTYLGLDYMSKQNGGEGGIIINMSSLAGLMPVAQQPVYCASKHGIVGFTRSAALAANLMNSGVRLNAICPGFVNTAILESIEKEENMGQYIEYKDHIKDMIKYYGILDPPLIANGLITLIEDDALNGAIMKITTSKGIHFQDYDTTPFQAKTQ

4-((3-amino-4-phenyl-6-(thiophen-2-yl)thieno[2,3-b]pyridin-2-yl)sulfonyl)butyl acetate [SW209128]
IC50 [1, 10]: 4910 nM

CCCCC[C@H](O)/C=C/[C@H]1[C@H](O)CC(=O)[C@@H]1C/C=C\CCCC(=O)O [PGE2]
increase in colonies compared with SW033291 treated marrow, in words [2]: lesser increase

CS(=O)(=O)c1sc2nc(-c3cccs3)cc(-c3ccccc3)c2c1N [SW033290]
IC50 [1, 10]: 525 nM

COc1ccc(OC)c(N(CC(=O)Nc2cccnc2)S(=O)(=O)c2ccccc2)c1 [SW054384]
direct binding to 15-PGDH, in words ([3]; melting temperature shift, cofactor 10 μM and 100 μM): cannot be demonstrated to bind
PGE2 level ([4]; compound from 24 hours before IL1-beta, maintained next 26 hours): lower level of PGE2
15-PGDH mRNA levels [5]: do not in general alter 15-PGDH mRNA levels
concentration of maximum activity [6]: 6.25 µM
luciferase activity, in words [6]: increase luciferase activity

O=C(c1ccc2nc(-c3ccccc3)c(-c3ccccc3)nc2c1)N1CCCCC1 [SW145753]
15-PGDH activity in cells as reflected in PGE2 levels ([4]; IL1-beta 23 hours, compound for last 5 hours): clear inhibition of 15-PGDH activity
15-PGDH mRNA levels [5]: do not in general alter 15-PGDH mRNA levels
luciferase activity, in words [6]: increase luciferase activity

CCCC[S+]([O-])c1sc2nc(-c3cccs3)ccc2c1N (stereo not drawn) [SW206980]
effect on CellTitre-Glo levels [7]: No effect
highest PGE2 level in medium ([4]; IL-1β 16 h, then compound 8 h): 2500 pg/mL
Toxicity [8]: >7.5 µM

CCCC[S+]([O-])c1sc2nc(-c3nccs3)ccc2c1N (stereo not drawn) [SW206992]
Δ Tm (NADH) [3]: 19 °C
melting temperature ([3]; 10 μM 15-PGDH, NAD(+) 100 μM, control 49): 59 degrees
melting temperature ([3]; 10 uM 15-PGDH, NADH 100 uM, control 55): 68.5 degrees
effect on CellTitre-Glo levels [7]: No effect
concentration at which maximal effect on PGE2 is attained ([4]; IL-1β 16 h, then compound 8 h): 2.5 µM
highest PGE2 level in medium ([4]; IL-1β 16 h, then compound 8 h): 2100 pg/mL
IC50 ([1]; Table 2 summary, read-out: IC50): 1.41 nM
IC50 [1, 10]: 1.41 nM
Time to inhibition (10 nM) ([1]; time to inhibit NADH generation after drug is added, 10 nM): ~2 min
Toxicity [8]: >7.5 µM
concentration needed to induce maximal reporter induction ([6]; exposure for 24 hours): ≥ 1000 nM
Concentration for Full Cell Line Reporter Induction [6]: >1 µM

CCCC[S+]([O-])c1sc2nc(-c3ccccc3)nc(-c3ccccc3)c2c1N (stereo not drawn) [SW208065]
Δ Tm (NADH) ([3]; shift in melting temperature, cofactor NADH present): 13 °C
Concentration for Full Cell Line Reporter Induction [6]: ~0.1 µM

CCCC[S+]([O-])c1sc2nc(-c3nccs3)cc(-c3ccccc3)c2c1N (stereo not drawn) [SW208066]
rank of PGE2 level in medium [4]: highest levels of PGE2

CCCC[S+]([O-])c1sc2nc(-c3cccs3)nc(-c3ccccc3)c2c1N (stereo not drawn) [SW208067]
rank of PGE2 level in medium [4]: highest levels of PGE2

CCCCSc1ncccc1N [SW208068]
IC50 [1, 10]: > 7500 nM

CCCC[S+]([O-])c1ncccc1N (stereo not drawn) [SW208070]
IC50 [1, 10]: > 7500 nM

CCCC[S+]([O-])c1sc2nc(-c3cccs3)cc(-c3ccc(Br)cc3)c2c1N (stereo not drawn) [SW208199]
IC50 [1, 10]: 2.9 nM

CCCCSc1cc2ccc(-c3ccccc3)nc2s1 [SW208430, 2-(butylthio)-6-phenylthieno[2,3-b]pyridine]
IC50 [1, 10]: > 2500 nM

CCCC[S+]([O-])c1cc2ccc(-c3ccccc3)nc2s1 (stereo not drawn) [SW208432, 2-(butylsulfinyl)-6-phenylthieno[2,3-b]pyridine]
IC50 [1, 10]: 3.53 nM

CCCCS(=O)(=O)c1cc2ccc(-c3ccccc3)nc2s1 [SW208434]
IC50 [1, 10]: > 2500 nM

CCCCSc1sc2nc(-c3ccccc3)ccc2c1N [SW208435, 2-(butylthio)-6-phenylthieno[2,3-b]pyridin-3-amine]
IC50 [1, 10]: > 2500 nM

CCCC[S+]([O-])c1sc2nc(-c3cccs3)cc(C)c2c1N (stereo not drawn) [SW208488, 2-(butylsulfinyl)-4-methyl-6-(thiophen-2-yl)thieno[2,3-b]pyridin-3-amine]
IC50 [1, 10]: 1.43 nM

CCCCSc1nc2nc(-c3cccs3)ccc2[nH]1 [SW208494, 2-(butylthio)-5-(thiophen-2-yl)-3H-imidazo[4,5-b]pyridine]
IC50 [1, 10]: > 7500 nM

CC(C)[S+]([O-])c1sc2nc(-c3nccs3)cc(-c3cccnc3)c2c1N (stereo not drawn) [SW208778]
IC50 [1, 10]: 3.99 nM

CCCC[S+]([O-])c1sc2nc(-c3nccs3)c(C(=O)OCC)c(-c3ccc(Br)cc3)c2c1N (stereo not drawn) [SW209123, Ethyl 3-amino-4-(4-bromophenyl)-2-(butylsulfinyl)-6-(thiazol-2-yl)thieno[2,3-b]pyridine-5-carboxylate]
IC50 [1, 10]: 40.8 nM

CCCC[S+]([O-])c1sc2nc(-c3nccs3)cc(-c3nccs3)c2c1N (stereo not drawn) [SW209124, 2-(butylsulfinyl)-4,6-di(thiazol-2-yl)thieno[2,3-b]pyridin-3-amine]
induction of PGE2 compared with SW033291 [4]: increased activity relative to SW033291

CCCC[S+]([O-])c1sc2nc(-c3nccs3)cc(-c3nccn3C)c2c1N (stereo not drawn) [SW209125, 2-(butylsulfinyl)-4-(1-methyl-1H-imidazol-2-yl)-6-(thiazol-2-yl)thieno[2,3-b]pyridin-3-amine]
induction of PGE2 compared with SW033291 [4]: increased activity relative to SW033291

CC(=O)OCCCC[S+]([O-])c1sc2nc(-c3cccs3)cc(-c3ccccc3)c2c1N (stereo not drawn) [SW209129, 4-((3-amino-4-phenyl-6-(thiophen-2-yl)thieno[2,3-b]pyridin-2-yl)sulfinyl)butyl acetate]
IC50 [1, 10]: 41.5 nM

Nc1c([S+]([O-])CCCCO)sc2nc(-c3cccs3)cc(-c3ccccc3)c12 (stereo not drawn) [SW209271, 4-((3-amino-4-phenyl-6-(thiophen-2-yl)thieno[2,3-b]pyridin-2-yl)sulfinyl)butan-1-ol]
IC50 [1, 10]: 34.2 nM

CC(=O)OCCCS(=O)(=O)c1sc2nc(-c3cccs3)cc(-c3ccccc3)c2c1N [SW209272, 3-((3-amino-4-phenyl-6-(thiophen-2-yl)thieno[2,3-b]pyridin-2-yl)sulfonyl)propyl acetate]
IC50 [1, 10]: 530 nM

CC(=O)OCCC[S+]([O-])c1sc2nc(-c3cccs3)cc(-c3ccccc3)c2c1N (stereo not drawn) [SW209273, 3-((3-amino-4-phenyl-6-(thiophen-2-yl)thieno[2,3-b]pyridin-2-yl)sulfinyl)propyl acetate]
IC50 [1, 10]: 21.6 nM

CC(C)[S+]([O-])c1sc2nc(-c3nccs3)cc(-c3nccn3C)c2c1N (stereo not drawn) [SW209279, 2-(isopropylsulfinyl)-4-(1-methyl-1H-imidazol-2-yl)-6-(thiazol-2-yl)thieno[2,3-b]pyridin-3-amine]
IC50 [1, 10]: 4.18 nM

CCC[S+]([O-])c1sc2nc(-c3nccs3)cc(-c3nccn3C)c2c1N (stereo not drawn) [SW209280, 4-(1-methyl-1H-imidazol-2-yl)-2-(propylsulfinyl)-6-(thiazol-2-yl)thieno[2,3-b]pyridin-3-amine]
IC50 [1, 10]: 3.73 nM

Nc1c([S+]([O-])CCCCCl)sc2nc(-c3cccs3)cc(-c3ccccc3)c12 (stereo not drawn) [SW209329, 2-((4-chlorobutyl)sulfinyl)-4-phenyl-6-(thiophen-2-yl)thieno[2,3-b]pyridin-3-amine]
IC50 [1, 10]: 4.36 nM

CCCCS(=O)(=O)c1sc2nc(-c3nccs3)cc(-c3ccc(CO)cc3)c2c1N [SW209333]
IC50 [1, 10]: > 2500 nM

CCCC[S+]([O-])c1sc2nc(-c3nccs3)cc(-c3cnc(C)n3C)c2c1N (stereo not drawn) [SW209415, 2-(butylsulfinyl)-4-(1,2-dimethyl-1H-imidazol-5-yl)-6-(thiazol-2-yl)thieno[2,3-b]pyridin-3-amine]
increase of homed donor cells in recipient bone marrow ([9]; 10 mg/kg IP, FIG. 140): approximately 2.5 fold
share of 15-PGDH inhibitory activity due to the (+) optical isomer [1]: at least 98%

CCCC[S+]([O-])CSc1nc(-c2nccs2)cc(-c2nccn2C)c1C#N (stereo not drawn) [SW209427]
IC50 [1, 10]: 1480 nM

CCCCC(C)(C)[C@H](O)/C=C/[C@H]1[C@H](O)CC(=O)[C@@H]1C/C=C\CCCC(=O)O [dmPGE2, 16,16-dimethyl PGE2]
increase in colonies compared with SW033291 treated marrow, in words [2]: slightly greater increase

COc1ccc2c(c1)c(CC(=O)O)c(C)n2C(=O)c1ccc(Cl)cc1 [indomethacin, reference compound]
effect of co-treatment on the homing effect of SW033291 ([9]; with SW033291 10 mg/kg IP): near completely blocked

(−) SW209415
IC50 ([1]; FIG. 135, read-out: IC50): 164 nM
